# Measurements from patent US8372886B2, “Treatment of renal disorders, diabetic nephropathy and dyslipidemias” (Kiacta Sarl, priority 2005, dated 2013).
# System: Zucker Diabetic Fatty rat (ZDF)
# Assay: In vivo preventive study of renal function in the Zucker Diabetic Fatty rat model of diabetic nephropathy
# From the text: The compound 1,3 Propanedisulfonic Acid Disodium Salt (PDS) was selected for a preventive study of renal function in the Zucker rat (ZDF) mode.
# A leading study model for DN is the inbred Zucker Diabetic Fatty rat (ZDF). Given a diabetogenic diet, the ZDF rat will closely mimic human adult onset diabetes (Type 2) and related complications including glomerulosclerosis and renal damage earlier than when fed a normal diet (i.e. 14-18 weeks of age). In addition, obesity, mild hypertension, hypertriglyceridemia, hypercholesterolemia, fasting hyperglycemia, impaired glucose tolerance and hyperinsulinemia, are all major phenotypes featured in the ZDF rat.
# This pre-clinical investigation evaluates the role and efficacy of 1,3 Propanedisulfonic Acid Disodium Salt (PDS) (Eprodisate Disodium) as a preventive treatment for DN and related pathophysiology in the ZDF rat model. The primary measured outcome is the attenuation/reversal of creatinine clearance deterioration and of proteinuria. The secondary measured outcome is the impact on the metabolic status in this model.
# Thirty-two, 6 week-old male ZDF rats (Charles River, St. Constant, Canada) were randomized in 2 groups, Treated (PDS; in 1% sucrose drinking solution) and Control (1% sucrose drinking solution), and studied for a period of 8 weeks. […] All rats were fed a high sucrose/high fat diabetogenic diet (Harlan™ TD95217). Body weight, food and drinking solution consumption were measured on a daily basis. Twelve rats from each group were individually housed in metabolic cages for a period of 24 hours once a week. During week 2, 3, 4 and 5, rats placed in metabolic cages received drinking solution but were placed in fasting condition, whereas during weeks 1, […], 6, 7, and 8, rats were given ad libitum access to food and drinking solution. At the end of each metabolic cage session, urine output was measured, and blood and urine samples were collected in order to quantify serum and/or urine levels of PDS, creatinine, protein, uric acid, triglycerides, glucose, and electrolytes. These variables were used to calculate creatinine clearance (CCr) and proteinuria, and to evaluate general metabolic and renal health status.
# Results for each time point are represented as mean±SE. Trend statistics are calculated by repeated measures ANOVA, with p<0.02 considered statistically significant.
# [1] = preliminary evaluation, rats sacrificed at about 9 weeks of treatment, not shown
compound,measurement,setting,value
"O=S(=O)([O-])CCCS(=O)(=O)[O-].[Na+].[Na+] [PDS, 1,3 Propanedisulfonic Acid Disodium Salt]",uric acid serum levels,"ZDF rats, summary statement of the study",reduction of uric acid serum levels
same,tolerability,"male ZDF rats, PDS in 1% sucrose drinking solution, adjusted higher dose, satient condition",well tolerated
same,serum triglyceride levels versus Control animals,"male ZDF rats, satient condition, after 8 weeks of treatment, p=0.0067, FIGS. 3A and 3B",reduced serum triglyceride levels
same,degree of decline of creatinine clearance normalized over body weight (CCr/BW) versus Control animals,"male ZDF rats, satient condition, after 8 weeks of treatment, p=0.012, FIGS. 2A and 2B",significantly lowered the degree of decline
same,"uric acid clearance, effect of treatment over the study","male ZDF rats, satient condition, over 8 weeks, FIG. 4A",trend in the positive effect
same,uric acid clearance compared to the control group at week 8,"male ZDF rats, satient condition, week 8, FIG. 4B",significant difference compared to the control group
same,kidney mass versus control rats,[1],greater kidney mass than control rats
same,mass of the heart ventricles versus control rats,[1],slightly lower ventricular mass
